Test results: patent publication US7816522B2, “Triazolone derivatives” (Eisai Co., Ltd., priority 2006, dated 2010)
Where a name gives a salt, the structure may show the parent alone.

Biological target: T1, human clotting factor VIIa (Homo sapiens, UniProt P08709)
T1 construct: a human clotting factor VIIa (hereinafter, “Factor VIIa”) purified sample; purchased Enzyme Research Laboratories HFVIIa
Assay: Inhibitory activity against clotting factor VIIa (chromogenic substrate Spectrozyme FVIIa, TF/Factor VIIa enzyme solution)
Format: biochemical
Settings: human Factor VIIa 5 nmol/L with human TF 10 nmol/L, room temperature 40 minutes, 405 nm
Method: [Inhibitory Activity Against Clotting Factor VIIa]
Dimethylsulfoxide (DMSO) solutions were prepared with compounds of the invention at concentration of 10 mmol/L (10 mmol/L compound solutions).
One packet of tris-hydroxymethylaminomethane-preset (hereinafter referred to as “Tris preset”) (Product of Sigma Corp., Catalog No. T8293), 8.8 g of sodium chloride (NaCl) and 1 g of bovine serum albumin (hereinafter abbreviated as “BSA”) were dissolved in 1 L of water to prepare a Tris-BSA buffer (100 mmol/L Tris, 0.15 mol/L NaCl, 0.1% BSA, pH 7.4).
This Tris-BSA buffer (180 μL) was added to the aforementioned 10 mmol/L compound solution (20 μL). A 10-fold dilution series was prepared for this mixture using the aforementioned Tris-BSA buffer, and solutions with the compound at concentrations of 1.0 mmol/L, 100, 10, 1, 0.1, 0.01 and 0.001 μmol/L were prepared (1.0 mmol-0.001 μmol/L compound solutions). As a control, a solution was prepared by 10-fold dilution of DMSO with the Tris-BSA buffer (hereinafter referred to as “control 10% solution”).
After dissolving one packet of Tris preset, NaCl (8.8 g) and BSA (1 g) in water (about 900 mL), there were added 1 mol/L aqueous calcium chloride (CaCl2) (15 mL) and 1 mg/mL aqueous cephalin (30 mL), and the total volume was brought to 1 L by adding water. To this solution there was added a human tissue factor (hereinafter, “TF”) sample (product of Calbiochem, Catalog No. 612151) (450 μg) to a TF sample concentration of 10 nmol/L, and then a human clotting factor VIIa (hereinafter, “Factor VIIa”) purified sample (product of Enzyme Research Laboratories, Catalog No. HFVIIa) (250 μg) was added to a Factor VIIa purified sample concentration of 5 nmol/L, to prepare an enzyme solution (100 mmol/L Tris-HCl, 0.15 mol/L NaCl, 15 mmol/L CaCl2, 30 μg/mL cephalin, 1 mg/mL BSA, 10 nmol/L TF, 5 nmol/L Factor VIIa).
To 110 μL of this enzyme solution there was added 15 μL of each of the 1.0 mmol-0.001 μmol/L compound solutions, and then 25 μL of a 1.0 mmol/L synthetic chromogenic substrate solution (Spectrozyme FVIIa, product of American Diagnostica, Catalog No. 217L) was added and the mixture was allowed to stand at room temperature for 40 minutes. Next, the amount of 4-nitroanilide released into the solution was quantitated by spectrophotometry (405 nm).
A control measurement was conducted in the same manner, using the control 10% solution instead of the compound solution.
This measurement yielded the enzyme reaction inhibition in the presence of 100 μmol/L to 0.1 nmol/L of each compound of the invention.
The enzyme reaction inhibition at each compound concentration was subjected to non-linear regression analysis, and the IC50 value for inhibitory activity of each compound against clotting factor VIIa was calculated.

T1 sequence (P08709 213-466 limits assumed): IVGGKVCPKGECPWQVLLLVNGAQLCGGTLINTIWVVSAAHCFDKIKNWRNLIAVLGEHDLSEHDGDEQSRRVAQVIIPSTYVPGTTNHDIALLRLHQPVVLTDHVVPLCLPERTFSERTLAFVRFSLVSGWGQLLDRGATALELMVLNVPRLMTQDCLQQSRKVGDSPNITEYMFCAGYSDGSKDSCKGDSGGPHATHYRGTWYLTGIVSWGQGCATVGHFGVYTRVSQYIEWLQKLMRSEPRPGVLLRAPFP
T1 sequence (P08709 61-212 limits assumed): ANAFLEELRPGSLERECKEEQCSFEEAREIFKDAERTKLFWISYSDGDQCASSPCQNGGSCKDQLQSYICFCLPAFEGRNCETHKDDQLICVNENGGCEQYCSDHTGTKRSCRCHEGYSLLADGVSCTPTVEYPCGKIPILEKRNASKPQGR
T1 sequence (P13726 33-295 partner): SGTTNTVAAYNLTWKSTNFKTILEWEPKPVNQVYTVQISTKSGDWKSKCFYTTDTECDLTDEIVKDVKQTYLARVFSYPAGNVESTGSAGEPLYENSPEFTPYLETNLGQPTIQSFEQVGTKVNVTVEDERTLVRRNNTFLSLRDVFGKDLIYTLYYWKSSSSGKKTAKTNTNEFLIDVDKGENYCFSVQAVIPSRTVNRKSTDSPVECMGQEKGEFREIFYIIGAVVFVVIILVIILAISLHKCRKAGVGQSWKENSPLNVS

Row | IC50 | Compound
1 | 10.3 nM | COCCOc1cc(OC)cc(C(Nc2ccc(C(=N)N)cc2)c2nn(-c3ncccn3)c(=O)[nH]2)c1 (racemic) [Example 6, (R) and (S)-4-({[3-methoxy-5-(2-methoxyethoxy)phenyl]-(5-oxo-1-pyrimidin-2-yl-4,5-dihydro-1H-[1,2,4]triazol-3-yl)methyl}amino)benzamidine acetate]
2 | 4.6 nM | COc1cc(C(Nc2ccc(C(=N)N)cc2)c2nn(-c3ncccc3F)c(=O)[nH]2)cc2c1OCC2 (racemic) [Example 123, (R) and (S)-4-({[1-(3-fluoropyridin-2-yl)-5-oxo-4,5-dihydro-1H-[1,2,4]triazol-3-yl]-(7-methoxy-2,3-dihydrobenzofuran-5-yl)methyl}amino)benzamidine acetate]
3 | 51.7 nM | COc1cc(C(Nc2ccc(C(=N)N)cc2)c2nn(-c3ncccn3)c(=O)[nH]2)cc(OC)c1OC (stereo not shown) [Example 86, 4-{[(5-oxo-1-pyrimidin-2-yl-4,5-dihydro-1H-[1,2,4]triazol-3-yl)-(3,4,5-trimethoxyphenyl)methyl]amino}benzamidine acetate]
4 | 23.5 nM | COc1cc(C(Nc2ccc(C(=N)N)cc2)c2nn(-c3ccsc3C(=O)O)c(=O)[nH]2)c(F)cc1OCCO (racemic) [Example 237, 3-(3-{(4-Carbamimidoylphenylamino)-[2-fluoro-4-(2-hydroxyethoxy)-5-methoxyphenyl]methyl}-5-oxo-4,5-dihydro-[1,2,4]triazol-1-yl)thiophene-2-carboxylic acid]
5 | 7.4 nM | COc1cc(C(Nc2ccc(C(=N)N)cc2)c2nn(-c3ncccn3)c(=O)[nH]2)cc2c1OCCC2 (racemic) [Example 24, (R) and (S)-4-{[(8-methoxychroman-6-yl)-(5-oxo-1-pyrimidin-2-yl-4,5-dihydro-1H-[1,2,4]triazol-3-yl)methyl]amino}benzamidine acetate]
6 | 5.1 nM | COc1cc(C(Nc2ccc(C(=N)N)cc2)c2nn(-c3cccnn3)c(=O)[nH]2)cc2c1OCCCO2 (stereo not shown) [Example 147, 4-{[(9-methoxy-3,4-dihydro-2H-benzo[b][1,4]dioxepin-7-yl)-(5-oxo-1-pyridazin-3-yl-4,5-dihydro-1H-[1,2,4]triazol-3-yl)methyl]amino}benzamidine acetate]
7 | 18.7 nM | COc1cc(C(Nc2ccc(C(=N)N)cc2)c2nn(-c3ncsc3C(=O)O)c(=O)[nH]2)cc2c1OCOC2 (racemic) [Example 166, (R) and (S)-4-{3-[(4-carbamimidoylphenylamino)-(8-methoxy-4H-benzo[1,3]dioxin-6-yl)methyl]-5-oxo-4,5-dihydro-[1,2,4]triazol-1-yl}thiazole-5-carboxylic acid]
8 | 6.7 nM | CCOc1cc(OCCF)c(F)c(C(Nc2ccc(C(=N)N)cc2)c2nn(-c3ncccn3)c(=O)[nH]2)c1 (racemic) [Example 68, (R) and (S)-4-({[2-fluoro-3-(2-fluoroethoxy)-5-ethoxyphenyl]-(5-oxo-1-pyrimidin-2-yl-4,5-dihydro-1H-[1,2,4]triazol-3-yl)methyl}amino)benzamidine acetate]
9 | 3.3 nM | CCc1cc(OCCF)cc(C(Nc2ccc(C(=N)N)cc2)c2nn(-c3ncccn3)c(=O)[nH]2)c1 (racemic) [Example 74, (R) and (S)-4-({[3-ethyl-5-(2-fluoroethoxy)phenyl]-(5-oxo-1-pyrimidin-2-yl-4,5-dihydro-1H-[1,2,4]triazol-3-yl)methyl}amino)benzamidine acetate]
10 | 6.9 nM | CCOC(=O)c1cn[nH]c1-n1nc(C(Nc2ccc(C(=N)N)cc2)c2cc(OC)c(OC)cc2F)[nH]c1=O (stereo not shown) [Example 157d, 5-{3-[(4-carbamimidoylphenylamino)-(2-fluoro-4,5-dimethoxyphenyl)methyl]-5-oxo-4,5-dihydro-[1,2,4]triazol-1-yl}-1H-pyrazole-4-carboxylic acid ethyl ester]
11 | 7.5 nM | COCCc1cc(C(Nc2ccc(C(=N)N)cc2)c2nn(-c3ncccn3)c(=O)[nH]2)cc(OC)c1OC (racemic) [Example 129, (R) and (S)-4-({[3,4-dimethoxy-5-(2-methoxyethyl)-phenyl]-(5-oxo-1-pyrimidin-2-yl-4,5-dihydro-1H-[1,2,4]triazol-3-yl)methyl}amino)benzamidine acetate]
12 | 17 nM | COc1cc(F)c(C(Nc2ccc(C(=N)N)cc2)c2nn(-c3ncccc3N)c(=O)[nH]2)cc1OC (stereo not shown) [Example 138, 4-({[1-(3-aminopyridin-2-yl)-5-oxo-4,5-dihydro-1H-[1,2,4]triazol-3-yl]-(2-fluoro-4,5-dimethoxyphenyl)methyl}amino)benzamidine trifluoroacetate]
13 | 4.5 nM | COc1cc(C(Nc2ccc(C(=N)N)cc2)c2nn(-c3ccsc3C(=O)O)c(=O)[nH]2)cc(OC)c1OC (racemic) [Example 227, 3-{3-[(R) and (S)-(4-Carbamimidoylphenylamino)-(3,4,5-trimethoxyphenyl)methyl]-5-oxo-4,5-dihydro-[1,2,4]triazol-1-yl}thiophene-2-carboxylic acid]
14 | 27.6 nM | COc1cc(OCCCO)c(F)c(C(Nc2ccc(C(=N)N)cc2)c2nn(-c3[nH]ncc3C(=O)O)c(=O)[nH]2)c1 (stereo not shown) [Example 177, 5-(3-{(4-carbamimidoylphenylamino)-[2-fluoro-3-(3-hydroxypropoxy)-5-methoxyphenyl]methyl}-5-oxo-4,5-dihydro-[1,2,4]triazol-1-yl)-1H-pyrazole-4-carboxylic acid acetate]
15 | 2.3 nM | COc1ccc(C(Nc2ccc(C(=N)N)cc2)c2nn(-c3ccsc3C(=O)O)c(=O)[nH]2)cc1OC (racemic) [Example 155, (R) and (S)-3-{3-[(4-carbamimidoylphenylamino)-(3,4-dimethoxyphenyl)methyl]-5-oxo-4,5-dihydro[1,2,4]triazol-1-yl}thiophene-2-carboxylic acid acetate]
16 | 10.1 nM | COc1cc(C(Nc2ccc(C(=N)N)cc2)c2nn(-c3ncsc3C(=O)O)c(=O)[nH]2)cc2c1OCCCO2 (single isomer, unassigned) [Example 180, 4-{3-[(4-carbamimidoylphenylamino)-(9-methoxy-3,4-dihydro-2H-benzo[b][1,4]dioxepin-7-yl)methyl]-5-oxo-4,5-dihydro-[1,2,4]triazol-1-yl}thiazole-5-carboxylic acid]
17 | 6.4 nM | COc1ccccc1-n1nc(C(Nc2ccc(C(=N)N)cc2)c2cc(C)cc(OCCF)c2F)[nH]c1=O (stereo not shown) [Example 91, 4-({[2-fluoro-3-(2-fluoroethoxy)-5-methylphenyl]-[1-(2-methoxyphenyl)-5-oxo-4,5-dihydro-1H-[1,2,4]triazol-3-yl]methyl}amino)benzamidine trifluoroacetate]
18 | 2.7 nM | COc1cc(C(Nc2ccc(C(=N)N)cc2)c2nn(-c3ncccc3F)c(=O)[nH]2)cc2c1OCCC2 (racemic) [Example 29, (R) and (S)-4-({[1-(3-fluoropyridin-2-yl)-5-oxo-4,5-dihydro-1H-[1,2,4]triazol-3-yl]-(8-methoxychroman-6-yl)methyl}amino)benzamidine acetate]
19 | 5.1 nM | COc1cc(OCCF)c(F)c(C(Nc2ccc(C(=N)N)cc2)c2nn(-c3cccc(N)n3)c(=O)[nH]2)c1 (stereo not shown) [Example 51, 4-({[1-(6-aminopyridin-2-yl)-5-oxo-4,5-dihydro-1H-[1,2,4]triazol-3-yl]-[2-fluoro-3-(2-fluoroethoxy)-5-methoxyphenyl]methyl}amino)benzamidine trifluoroacetate]
